Test results taken from EPA's ToxValDB 9.5.

How the values were obtained:
Rattus norvegicus [1] = details: subchronic; oral; gavage; M; Sprague-Dawley; Body Weight Changes: Body weight gain decrease + Hematology: Fibrinogen decrease + Blood Chemistry: BUN increase, ALP increase, TP decrease…
Rattus norvegicus [2] = details: oral, gavage, Crl:CD(SD)
Mus musculus = details: reproduction developmental; oral; drinking water; F; Nod/Shilt; generation: F1; F1: Endocrine: Blood: Glucose (GLU) + F1: Endocrine: Multiple Organs: Diabetes + F1: Endocrine: Pancreas: Insulitis
Rattus norvegicus [3] = details: duration: 46 days, oral, gavage
Rattus norvegicus [4] = details: subchronic; oral; M/F; renal and hepatotoxicity
[5] = developmental, F, generation: F1, F1: Developmental: Whole Body: Pup Weight Relative to Litter (PND 0) + F1: Developmental: Whole Body: Pup Weight Relative to Litter (PND 4)
[6] = developmental, M/F, generation: F1, F1: Developmental: Whole Body: Live Birth Index + F1: Developmental: Whole Body: Live Pups Born + F1: Developmental: Whole Body: No. Live …
[7] = developmental, M, generation: F1, F1: Developmental: Whole Body: Pup Weight Relative to Litter (PND 0) + F1: Developmental: Whole Body: Pup Weight Relative to Litter (PND 4)
[8] = reproduction developmental, duration: 42 days, M, generation: P0, P0: Blood: Albumin/Globulin (A/G) Ratio + P0: Liver: Cholesterol (CHOL), Total, Blood + P0: Liver: Hepatocellular Hypertrophy + P0: Liver: …
[9] = reproduction developmental, duration: 46 days, F, generation: F1, F1: Whole Body: Pup Weight Relative to Litter (PND 0) + F1: Whole Body: Pup Weight Relative to Litter (PND 4)
[10] = reproduction developmental, duration: 46 days, F, generation: P0, P0: Liver: Cholesterol (CHOL), Total, Blood + P0: Liver: Phospholipid
[11] = reproduction developmental, duration: 46 days, M, generation: F1, F1: Whole Body: Pup Weight Relative to Litter (PND 0) + F1: Whole Body: Pup Weight Relative to Litter (PND 4)
[12] = reproduction developmental, F, generation: P0, P0: Developmental: Uterus: Implantation + P0: Developmental: Uterus: Implantation Index + P0: Hepatic: Blood: Albumin/Globulin (A/G) Ratio…
[13] = reproduction developmental, F, generation: P0, P0: General Toxicity: Whole Body: Clinical Observations + P0: General Toxicity: Whole Body: Maternal Body Weight Change + P0: Other Systems…
[14] = reproduction developmental, M, generation: P0, P0: General Toxicity: Whole Body: Body Weight Change + P0: General Toxicity: Whole Body: Clinical Observations + P0: Other Systems: Bone: …
[15] = reproduction developmental, M, generation: P0, P0: Hepatic: Blood: Albumin/Globulin (A/G) Ratio + P0: Hepatic: Liver: Alanine Aminotransferase (ALT) + P0: Hepatic: Liver: Albumin (A) + P0…
[16] = developmental, F, Developmental: Decreased body weight in pups on PNDs 0 and 4 (13-19% in males and 12-16% in females)
[17] = subchronic, M/F, Body Weight: Decreased body weight (~10%) in males during exposure and recovery and in satellite females during dosing (~23% on day 40) and …

SMILES: O=C(O)C(F)(F)C(F)(F)C(F)(F)C(F)(F)C(F)(F)C(F)(F)C(F)(F)C(F)(F)C(F)(F)C(F)(F)F [Perfluoroundecanoic acid]
- NOEL (Rattus norvegicus [1]): 0.1 mg/kg-day
- LOAEL (Rattus norvegicus [2]; [5]): 0.3 mg/kg-day
- NOAEL (Rattus norvegicus [2]; [5]): 0.1 mg/kg-day
- LOAEL (Rattus norvegicus [2]; [6]): 0.3 mg/kg-day
- NOAEL (Rattus norvegicus [2]; [6]): 0.1 mg/kg-day
- LOAEL (Rattus norvegicus [2]; [7]): 0.3 mg/kg-day
- NOAEL (Rattus norvegicus [2]; [7]): 0.1 mg/kg-day
- NEL (Rattus norvegicus [2]; reproduction developmental, duration: 42 days, M, generation: P0, P0: Adrenal: Adrenal Gland Histopathology + P0: Adrenal: Adrenal Gland Weight, Absolute + P0: Adrenal: Adrenal Gland Weight, Relative + P0: …): 1 mg/kg-day
- LEL (Rattus norvegicus [2]; reproduction developmental, duration: 42 days, M, generation: P0, P0: Adrenal: Adrenal Gland Weight, Absolute, Recovery + P0: Blood: Activated Partial Thromboplastin Time (APTT) + P0: Blood: Calcium (CA), …): 1 mg/kg-day
- NEL (Rattus norvegicus [2]; reproduction developmental, duration: 42 days, M, generation: P0, P0: Blood: Activated Partial Thromboplastin Time (APTT) + P0: Blood: Calcium (CA), Blood + P0: Blood: Fibrinogen + P0: Blood: Mean …): 0.3 mg/kg-day
- LEL (Rattus norvegicus [2]; [8]): 0.3 mg/kg-day
- NEL (Rattus norvegicus [2]; [8]): 0.1 mg/kg-day
- LEL (Rattus norvegicus [2]; reproduction developmental, duration: 42 days, M, generation: P0, P0: Blood: Platelets (PLT)): 0.1 mg/kg-day
- LEL (Rattus norvegicus [2]; [9]): 1 mg/kg-day
- NEL (Rattus norvegicus [2]; [9]): 0.3 mg/kg-day
- NEL (Rattus norvegicus [2]; reproduction developmental, duration: 46 days, F, generation: P0, P0: Adrenal: Adrenal Gland Histopathology + P0: Adrenal: Adrenal Gland Weight, Absolute + P0: Adrenal: Adrenal Gland Weight, Relative + P0: …): 1 mg/kg-day
- LEL (Rattus norvegicus [2]; reproduction developmental, duration: 46 days, F, generation: P0, P0: Adrenal: Adrenal Gland Weight, Absolute, Recovery + P0: Blood: Fibrinogen + P0: Blood: Mean Corpuscular Hemoglobin (MCH) + P0: Blood: …): 1 mg/kg-day
- NEL (Rattus norvegicus [2]; reproduction developmental, duration: 46 days, F, generation: P0, P0: Blood: Fibrinogen + P0: Blood: Mean Corpuscular Hemoglobin (MCH) + P0: Blood: Mean Corpuscular Volume (MCV) + P0: Kidney: Blood Urea …): 0.3 mg/kg-day
- LEL (Rattus norvegicus [2]; reproduction developmental, duration: 46 days, F, generation: P0, P0: Blood: Total Protein (TP), Blood + P0: Thymus: Thymus Histopathology): 0.1 mg/kg-day
- LEL (Rattus norvegicus [2]; [10]): 0.3 mg/kg-day
- NEL (Rattus norvegicus [2]; [10]): 0.1 mg/kg-day
- NEL (Rattus norvegicus [2]; reproduction developmental, duration: 46 days, M/F, generation: F1, F1: Whole Body: Live Birth Index + F1: Whole Body: Live pups (PND 4) + F1: Whole Body: Live Pups Born + F1: Whole Body: Male Pups per Pups …): 1 mg/kg-day
- LEL (Rattus norvegicus [2]; [11]): 1 mg/kg-day
- NEL (Rattus norvegicus [2]; [11]): 0.3 mg/kg-day
- LOAEL (Rattus norvegicus [2]; reproduction developmental, F, generation: P0, P0: Cardiovascular: Heart: Heart Histopathology + P0: Cardiovascular: Heart: Heart Weight, Absolute + P0: Cardiovascular: Heart: Heart …): 0.3 mg/kg-day
- LOAEL (Rattus norvegicus [2]; [12]): 0.3 mg/kg-day
- NOAEL (Rattus norvegicus [2]; [12]): 0.1 mg/kg-day
- LOAEL (Rattus norvegicus [2]; [13]): 1 mg/kg-day
- NOAEL (Rattus norvegicus [2]; [13]): 0.3 mg/kg-day
- LOAEL (Rattus norvegicus [2]; reproduction developmental, M, generation: P0, P0: Cardiovascular: Heart: Heart Histopathology + P0: Cardiovascular: Heart: Heart Weight, Absolute + P0: Cardiovascular: Heart: Heart …): 0.3 mg/kg-day
- LOAEL (Rattus norvegicus [2]; [14]): 1 mg/kg-day
- NOAEL (Rattus norvegicus [2]; [14]): 0.3 mg/kg-day
- LOAEL (Rattus norvegicus [2]; [15]): 0.3 mg/kg-day
- NOAEL (Rattus norvegicus [2]; [15]): 0.1 mg/kg-day
- LOAEL (Mus musculus): 0.042 mg/kg-day
- NOAEL (Mus musculus): 0.004 mg/kg-day
- LOAEL (Rattus norvegicus [3]; [16]): 1 mg/kg-day
- NOAEL (Rattus norvegicus [3]; [16]): 0.3 mg/kg-day
- LOAEL (Rattus norvegicus [3]; [17]): 1 mg/kg-day
- NOAEL (Rattus norvegicus [3]; [17]): 0.3 mg/kg-day
- NOAEL (Rattus norvegicus [3]; subchronic, M/F, Hepatic: Increased absolute and relative liver weight and centrilobular hypertrophy at 1.0 mg/kg/day): 1 mg/kg-day

SMILES: C#CCO [Propargyl alcohol]
- LOAEL (Rattus norvegicus [4]): 15 mg/kg-day
- NOAEL (Rattus norvegicus [4]): 5 mg/kg-day
